Structures are written as SMILES.

The target of the experiment is T1, TDO2 (Homo sapiens, UniProt P48775).
T1 construct: decreased levels of NFK in SW48 cells (high TDO expressing cells)
T1 sequence (P48775 whole entry): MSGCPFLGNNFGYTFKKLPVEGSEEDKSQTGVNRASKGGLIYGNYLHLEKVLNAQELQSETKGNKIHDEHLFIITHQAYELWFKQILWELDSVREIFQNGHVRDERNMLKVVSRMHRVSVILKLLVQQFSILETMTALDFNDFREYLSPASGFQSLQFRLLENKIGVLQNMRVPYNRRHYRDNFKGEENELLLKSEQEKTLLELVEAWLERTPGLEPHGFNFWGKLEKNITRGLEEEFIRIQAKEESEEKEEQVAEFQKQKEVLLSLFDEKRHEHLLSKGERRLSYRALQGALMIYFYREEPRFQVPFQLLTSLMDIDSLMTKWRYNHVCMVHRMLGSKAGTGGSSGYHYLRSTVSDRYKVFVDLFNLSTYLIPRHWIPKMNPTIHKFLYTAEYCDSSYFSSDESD
Description: TDO2 cell assay (NFK GreenScreen, SW48 cells). Type of experiment: cell-based. Particulars: SW48 cells (high TDO expressing), 200 uM tryptophan, 24 hours; Table 3; read-out: TDO2 Cell Fluor EC50.
`O[C@@H]1CCOC[C@H]1[C@@H]1c2ccccc2-c2cncn21` [Example 05c, (3R,4R)-3-((R)-5H-imidazo[5,1-a]isoindol-5-yl)-tetrahydro-2H-pyran-4-ol]: the EC50 is more than 25 µM.
With `N[C@@H]1COC[C@@H]1[C@H]1c2ccccc2-c2cncn21` (single isomer, unassigned) [Example 32c], the EC50 was 5.2 µM.
`CS(=O)(=O)N1CCC(O)C(C2c3ccccc3-c3cncn32)CC1` (single isomer, unassigned) [Example 92b]: the EC50 worked out at 8.6 µM.
Next, `OC1(C2c3ccccc3-c3cncn32)CCC1` (single isomer, unassigned) [Example 47b]: more than 25 µM; `NC(=O)c1nc2c(s1)CCC(C1c3ccccc3-c3cncn31)C2O` (single isomer, unassigned) [Example 149f]: more than 25 µM; `CCS(=O)(=O)N1CC[C@H]([C@H]2c3ccccc3-c3cncn32)[C@@H](O)C1` (stereo in doubt) [Example 16d, (3R,4R)-1-(ethylsulfonyl)-4-((S)-5H-imidazo[5,1-a]isoindol-5-yl)piperidin-3-ol]: more than 25 µM.
As for `CS(=O)(=O)N1CCC(C2c3ccc(F)cc3-c3cncn32)C(O)C1` (single isomer, unassigned) [Example 119b], the figure is 8.4 µM.
As for `OC1C(C2c3ccccc3-c3cncn32)CCC12CCOCC2` (single isomer, unassigned) [Example 68e], the figure is 0.27 µM; as for `CS(=O)(=O)c1ccc2c(c1)CCC(C1c3ccccc3-c3cncn31)C2O` (single isomer, unassigned) [Example 36g], 19 µM; as for `OC1CCCOCC1C1c2ccccc2-c2cncn21` (single isomer, unassigned) [Example 86d], 0.14 µM.
Turning to `OC1c2cc(C(F)F)nn2CCC1C1c2ccccc2-c2cncn21` (single isomer, unassigned) [Example 173b], the EC50 turned out to be 0.43 µM.
As for `CCS(=O)(=O)N1CC(O)C(C2c3ccccc3-c3cncn32)C1` (single isomer, unassigned) [Example 40c], the figure is more than 25 µM.
Next, `O[C@@H](C1CCOCC1)[C@@H]1c2ccccc2-c2cncn21` (single isomer, unassigned) [Example 138d]: 10 µM.
As for `O[C@H]1CC[C@@H]1[C@H]1c2ccccc2-c2cncn21` [Example 01e, (1S,2R)-2-((S)-5H-imidazo[5,1-a]isoindol-5-yl)cyclobutan-1-ol], the figure is 1.1 µM; as for `OC1CCOCC1C1c2c(Cl)cccc2-c2cncn21` (single isomer, unassigned) [Example 69b], more than 25 µM.
With `O[C@H]1c2ncsc2CC[C@@H]1[C@@H]1c2ccccc2-c2cncn21` [Example 125a, (4R,5R)-5-((R)-5H-imidazo[5,1-a]isoindol-5-yl)-4,5,6,7-tetrahydrobenzo[d]thiazol-4-ol], the EC50 was more than 25 µM.
Take `OC1CCCCC1C1c2ccc(F)cc2-c2cncn21` (single isomer, unassigned) [Example 25c]: the EC50 is 20 µM.
As for `OC1C(C2c3ccc(F)cc3-c3cncn32)CC12CCOCC2` (single isomer, unassigned) [Example 109a], the figure is 0.62 µM.
As for `OC1CCCOCC1C1c2ccccc2-c2cncn21` (single isomer, unassigned) [Example 86g], the figure is 0.84 µM; as for `NC(=O)C1CCC(O)(C2c3ccccc3-c3cncn32)CC1` (single isomer, unassigned) [Example 140b], more than 25 µM; as for `CCS(=O)(=O)N1CCC2(CCC(C3c4ccccc4-c4cncn43)C2O)CC1` (single isomer, unassigned) [Example 76a], 9.5 µM.
As for `OC1c2nccn2CCC1C1c2ccccc2-c2cncn21` (single isomer, unassigned) [Example 88d], the figure is 21 µM.

Values taken from US12583858B2 (Genentech, Inc., priority 2015, dated 2026).
